Assay results reported in the NIST ThermoML archive (doi:10.1007/s10765-007-0223-x).
Numbers after ± are expanded uncertainties.

Experiment: xn = mol fraction of the nth substance listed
Conditions: 101 kPa, Liquid; for speed of sound: Single path-length method

CCc1ccccc1 [ethylbenzene] + COC(C)(C)C
Conditions	mass density [kg/m3]	speed of sound [m/s]
288.15 K, x2 = 0	871.245 ± 0.36	1360.7 ± 2.1
288.15 K, x2 = 0.046	866.075 ± 0.39	1348.3 ± 2.1
288.15 K, x2 = 0.106	859.155 ± 0.4	1334.4 ± 2.1
288.15 K, x2 = 0.212	846.925 ± 0.42	1307.2 ± 2.1
288.15 K, x2 = 0.299	836.536 ± 0.43	1284.6 ± 2.1
288.15 K, x2 = 0.402	823.953 ± 0.45	1256.7 ± 2.1
288.15 K, x2 = 0.503	812.763 ± 0.47	1231.4 ± 2.1
288.15 K, x2 = 0.6	799.067 ± 0.49	1201.3 ± 2.1
288.15 K, x2 = 0.701	785.93 ± 0.51	1171.9 ± 2.1
288.15 K, x2 = 0.822	769.744 ± 0.53	1136.2 ± 2.1
288.15 K, x2 = 0.899	759.058 ± 0.55	1112.7 ± 2.1
288.15 K, x2 = 0.948	752.102 ± 0.56	1097.3 ± 2.1
290.65 K, x2 = 0	869.052 ± 0.37	1349.9 ± 2.1
290.65 K, x2 = 0.046	863.868 ± 0.39	1337.6 ± 2.1
290.65 K, x2 = 0.106	856.925 ± 0.4	1323.4 ± 2.1
290.65 K, x2 = 0.212	844.671 ± 0.42	1296.3 ± 2.1
290.65 K, x2 = 0.299	834.249 ± 0.44	1273.7 ± 2.1
290.65 K, x2 = 0.402	821.631 ± 0.45	1245.6 ± 2.1
290.65 K, x2 = 0.503	810.408 ± 0.47	1220.2 ± 2.1
290.65 K, x2 = 0.6	796.665 ± 0.49	1190.1 ± 2.1
290.65 K, x2 = 0.701	783.488 ± 0.51	1160.5 ± 2.1
290.65 K, x2 = 0.822	767.243 ± 0.54	1124.5 ± 2.1
290.65 K, x2 = 0.899	756.516 ± 0.55	1100.7 ± 2.1
290.65 K, x2 = 0.948	749.532 ± 0.56	1085.4 ± 2.1
293.15 K, x2 = 0	866.856 ± 0.37	1339.4 ± 2.1
293.15 K, x2 = 0.046	861.653 ± 0.4	1326.8 ± 2.1
293.15 K, x2 = 0.106	854.698 ± 0.41	1312.7 ± 2.1
293.15 K, x2 = 0.212	842.406 ± 0.42	1285.5 ± 2.1
293.15 K, x2 = 0.299	831.951 ± 0.44	1262.8 ± 2.1
293.15 K, x2 = 0.402	819.3 ± 0.46	1234.6 ± 2.1
293.15 K, x2 = 0.503	808.048 ± 0.47	1209.2 ± 2.1
293.15 K, x2 = 0.6	794.26 ± 0.5	1179 ± 2.1
293.15 K, x2 = 0.701	781.04 ± 0.52	1149.3 ± 2.1
293.15 K, x2 = 0.822	764.736 ± 0.54	1113.2 ± 2.1
293.15 K, x2 = 0.899	753.964 ± 0.56	1089.2 ± 2.1
293.15 K, x2 = 0.948	746.956 ± 0.57	1073.8 ± 2.1
295.65 K, x2 = 0	864.66 ± 0.37	1328.9 ± 2.1
295.65 K, x2 = 0.046	859.445 ± 0.4	1316.3 ± 2.1
295.65 K, x2 = 0.106	852.469 ± 0.41	1302 ± 2.1
295.65 K, x2 = 0.212	840.144 ± 0.43	1274.8 ± 2.1
295.65 K, x2 = 0.299	829.658 ± 0.44	1252 ± 2.1
295.65 K, x2 = 0.402	816.97 ± 0.46	1223.7 ± 2.1
295.65 K, x2 = 0.503	805.684 ± 0.48	1198.2 ± 2.1
295.65 K, x2 = 0.6	791.851 ± 0.5	1167.8 ± 2.1
295.65 K, x2 = 0.701	778.587 ± 0.52	1138.1 ± 2.1
295.65 K, x2 = 0.822	762.221 ± 0.54	1101.8 ± 2.1
295.65 K, x2 = 0.899	751.405 ± 0.56	1077.7 ± 2.1
295.65 K, x2 = 0.948	744.369 ± 0.57	1062.3 ± 2.1
298.15 K, x2 = 0	862.459 ± 0.38	1318.4 ± 2.1
298.15 K, x2 = 0.046	857.231 ± 0.4	1306 ± 2.1
298.15 K, x2 = 0.106	850.237 ± 0.41	1291.4 ± 2.1
298.15 K, x2 = 0.212	837.881 ± 0.43	1264.1 ± 2.1
298.15 K, x2 = 0.299	827.364 ± 0.45	1241.2 ± 2.1
298.15 K, x2 = 0.402	814.636 ± 0.46	1212.7 ± 2.1
298.15 K, x2 = 0.503	803.312 ± 0.48	1187.3 ± 2.1
298.15 K, x2 = 0.6	789.435 ± 0.51	1156.8 ± 2.1
298.15 K, x2 = 0.701	776.124 ± 0.52	1127 ± 2.1
298.15 K, x2 = 0.822	759.695 ± 0.55	1090.5 ± 2.1
298.15 K, x2 = 0.899	748.835 ± 0.56	1066.3 ± 2.1
298.15 K, x2 = 0.948	741.772 ± 0.57	1050.8 ± 2.1
300.65 K, x2 = 0	860.256 ± 0.38	1307.9 ± 2.1
300.65 K, x2 = 0.046	855.014 ± 0.41	1295.8 ± 2.1
300.65 K, x2 = 0.106	848.001 ± 0.42	1280.9 ± 2.1
300.65 K, x2 = 0.212	835.613 ± 0.43	1253.5 ± 2.1
300.65 K, x2 = 0.299	825.064 ± 0.45	1230.5 ± 2.1
300.65 K, x2 = 0.402	812.278 ± 0.47	1201.5 ± 2.1
300.65 K, x2 = 0.503	800.937 ± 0.49	1176.4 ± 2.1
300.65 K, x2 = 0.6	787.011 ± 0.51	1145.7 ± 2.1
300.65 K, x2 = 0.701	773.654 ± 0.53	1115.9 ± 2.1
300.65 K, x2 = 0.822	757.162 ± 0.55	1079.2 ± 2.1
300.65 K, x2 = 0.899	746.257 ± 0.57	1054.9 ± 2.1
300.65 K, x2 = 0.948	739.163 ± 0.58	1039.4 ± 2.1
303.15 K, x2 = 0	858.047 ± 0.38	1297.5 ± 2.1
303.15 K, x2 = 0.046	852.795 ± 0.41	1285.5 ± 2.1
303.15 K, x2 = 0.106	845.762 ± 0.42	1270.4 ± 2.1
303.15 K, x2 = 0.212	833.338 ± 0.44	1242.9 ± 2.1
303.15 K, x2 = 0.299	822.758 ± 0.45	1219.8 ± 2.1
303.15 K, x2 = 0.402	809.93 ± 0.47	1190.7 ± 2.1
303.15 K, x2 = 0.503	798.555 ± 0.49	1165.5 ± 2.1
303.15 K, x2 = 0.6	784.554 ± 0.51	1134.2 ± 2.1
303.15 K, x2 = 0.701	771.175 ± 0.53	1104.8 ± 2.1
303.15 K, x2 = 0.822	754.617 ± 0.56	1068 ± 2.1
303.15 K, x2 = 0.899	743.666 ± 0.57	1043.6 ± 2.1
303.15 K, x2 = 0.948	736.543 ± 0.58	1028 ± 2.1
305.65 K, x2 = 0	–	1287.1 ± 2.1
305.65 K, x2 = 0.046	–	1275.2 ± 2.1
305.65 K, x2 = 0.106	–	1260 ± 2.1
305.65 K, x2 = 0.212	–	1232.4 ± 2.1
305.65 K, x2 = 0.299	–	1209.2 ± 2.1
305.65 K, x2 = 0.402	–	1180 ± 2.1
305.65 K, x2 = 0.503	–	1154.7 ± 2.1
305.65 K, x2 = 0.6	–	1123.2 ± 2.1
305.65 K, x2 = 0.701	–	1093.7 ± 2.1
305.65 K, x2 = 0.822	–	1056.8 ± 2.1
305.65 K, x2 = 0.899	–	1032.3 ± 2.1
305.65 K, x2 = 0.948	–	1016.6 ± 2.1
